In US20070207993A1, “Molybdenum carbonyl complexes for treating rheumatoid arthritis and other inflammatory diseases” (Alfama - Investigacao e Desenvolvimetno De Productos …, priority 2005, published 2007):

Tests used:
[1] = CO release in the presence of reactive oxygen species (TBHP, H2O2, KO2); type: physicochemical; settings: 25° C., dark; for Equivalents of CO2 released, H2O2 / Equivalents of CO released, H2O2: H2O2 100:1, water; for Equivalents of CO2 released, TBHP / Equivalents of CO released, TBHP: TBHP 100:1, water
Protocol: The studies were done using the same method and apparatus described in Example 7 with the following modifications: RPMI/FBS was replaced by double distilled water in the experiments with H2O2 and TBHP and by tetrahydrofuran (THF) for the experiments with KO2; the temperature was kept at 25° C. The concentration of Compound I.1 was approximately 1 mM and the ration of concentrations of H2O2, TBHP and KO2 relative to Compound I.1 was 100:1. The amount of CO2 generated was also measured in the same experiment to ascertain the concurrent oxidation of coordinated CO. TBHP was added from a 70% aqueous solution and H2O2 from a 30% aqueous solution.

[2] = Spontaneous CO release from suspensions (gas chromatography, TCD); type: physicochemical; settings: suspension in RPMI with 10% FBS, 37° C., dark
Protocol: CO detection was carried out by Gas Chromatography using a thermal conductivity detector (TCD) for the quantification of CO and CO2. The experiments were done under an initial atmosphere of reconstituted air, free of CO and CO2. […] […] Samples were withdrawn with gas-tight Hamilton syringes after homogenization of the head-space at given time intervals, preferably 2 hours, 4 hours and 6 hours. […] The volumes of CO released are usually in the range between 0.5-3 mL.
As a possible result of the use of suspensions, the number of CO equivalents released in RPMI varied slightly. As an example of the possible variations, the average of eight independent assays done with suspensions of Compound I.1 is given in Table 2.

rat arthritis model = settings: previously shown, US 2003/0068387; cited from earlier work

SMILES: O=[C][Mo]([I])([C]=O)([C]=O)([C]=O)[C]=O [Compound I.6]
- Equivalents of CO2 released, H2O2 ([1]; 1 h): 0.14 equivalents
- Equivalents of CO released, H2O2 ([1]; 1 h): 1.31 equivalents
- Equivalents of CO2 released, H2O2 ([1]; 3 h): 0.44 equivalents
- Equivalents of CO released, H2O2 ([1]; 3 h): 3.04 equivalents
- Equivalents of CO2 released, H2O2 ([1]; 5 h): 0.51 equivalents
- Equivalents of CO released, H2O2 ([1]; 5 h): 3.20 equivalents
- Equivalents of CO2 released, H2O2 ([1]; 24 h): 0.35 equivalents
- Equivalents of CO released, H2O2 ([1]; 24 h): 1.91 equivalents
- Equivalents of CO2 released, TBHP ([1]; 1 h): 0.00 equivalents
- Equivalents of CO released, TBHP ([1]; 1 h): 0.48 equivalents
- Equivalents of CO2 released, TBHP ([1]; 3 h): 0.24 equivalents
- Equivalents of CO released, TBHP ([1]; 3 h): 1.75 equivalents
- Equivalents of CO2 released, TBHP ([1]; 5 h): 0.55 equivalents
- Equivalents of CO released, TBHP ([1]; 5 h): 3.51 equivalents
- Equivalents of CO2 released, TBHP ([1]; 24 h): 0.99 equivalents
- Equivalents of CO released, TBHP ([1]; 24 h): 4.29 equivalents
- Equivalents of CO released, RPMI ([2]; 2 hours): 0.42 equivalents of CO
- Equivalents of CO released, RPMI ([2]; 4 hours): 1.00 equivalents of CO
- Equivalents of CO released, RPMI ([2]; 6 hours): 1.25 equivalents of CO

SMILES: O=[C][Mo]([I])([C]=O)([C]=O)([C]=O)[C]=O [Compound I.16, K(diglyme)3 [Mo(CO)5I]]
- Equivalents of CO released, RPMI ([2]; 2 hours): 0.94 equivalents of CO
- Equivalents of CO released, RPMI ([2]; 4 hours): 1.20 equivalents of CO
- Equivalents of CO released, RPMI ([2]; 6 hours): 1.28 equivalents of CO

SMILES: O=[C][Mo]([I])([C]=O)([C]=O)([C]=O)[C]=O [Compound I.18, [NH4](diglyme)3[Mo(CO)5I]]
- Equivalents of CO released, RPMI ([2]; 2 hours): 0.55 equivalents of CO
- Equivalents of CO released, RPMI ([2]; 4 hours): 0.73 equivalents of CO
- Equivalents of CO released, RPMI ([2]; 6 hours): 0.79 equivalents of CO

SMILES: ClCCl [Methylene chloride]
- effects in a rat arthritis model (rat arthritis model): beneficial effects
